Assays:
[1] = test system: HT-29 human colorectal adenocarcinoma tumor xenografts; assay: biodistribution in mice bearing HT-29 tumor xenografts; assay type: in vivo, athymic nu/nu mice; conditions: for tumor-to-brain tissue ratio: HT-29 group; for Adrenals %IA/g tissue (mean ± SD) / Blood %IA/g tissue (mean ± SD) / Bone %IA/g tissue (mean ± SD) / Brain %IA/g tissue (mean ± SD) / Heart %IA/g tissue (mean ± SD) / Kidneys %IA/g tissue (mean ± SD) / Liver %IA/g tissue (mean ± SD) / Lung %IA/g tissue (mean ± SD) / Muscles %IA/g tissue (mean ± SD) / Pancreas %IA/g tissue (mean ± SD) / Sm. Intestine %IA/g tissue (mean ± SD) / Spleen %IA/g tissue (mean ± SD): HT-29 tumor mice; for Tumor %IA/g tissue (mean ± SD): HT-29 tumor
Protocol: (§1) B16F1 melanoma cells, HT-29 human colorectal adenocarcinoma cells, and C-32 amelanotic melanoma cells were purchased from the American Type Culture Collection (ATCC, Rockville, MD). B16F1 murine melanotic melanoma cells were maintained in Dulbecco’s modified Eagles medium supplemented with 10% fetal calf-serum, 2 mM L-glutamine, and 1 mM pyruvate. HT-29 and C-32 cells were maintained in RPMI supplemented with 10% fetal calf serum and 2 mM L-glutamine. C57BL/6 and athymic nu/nu mice were purchased from Charles River Laboratories (Charles River Laboratories, Boston, MA). All animal studies were performed using an IACUC-approved protocol, and the work was performed under the guidelines established by Wake Forest University. The cells were grown to confluency, harvested, washed with phosphate-buffered saline and then were suspended in a 1:1 mixture of phosphate-buffered saline and Matrigel (BD Life Sciences, San Jose, CA) at a concentration of 5 × 10^6 cells/mL. For subcutaneous tumor xenografts, […] in the right flank with 100 μL of a suspension of B16F1 cells, and female athymic nu/nu mice were injected in the right flank with 100 μL of HT-29 cells or C-32 cells.
(§2) The biodistribution studies were performed in mice bearing B16F1 (1 h n = 5; 2 h n = 6), C-32 (1 h n = 3; 2 h n = 3), and HT-29 (1 h n = 3; 2 h n = 3) tumor xenografts. The tumor-bearing mice were injected with ~40 μCi of 4-[^18F]FEBZA. A separate group of normal C57BL/6 mice with no tumor implants (1 h n = 3; 2 h n = 3) was also injected with ~40 μCi of 4-[^18F]FEBZA to study the distribution characteristics of 4-[^18F]FEBZA in the absence of tumors. At 1 h and 2 h post-injection, the mice were euthanized, and the tissues of interest were removed, rinsed with PBS, weighed, and counted for radioactivity contents using a γ-counter.

B16F1 melanoma cells = assay: in vitro cell binding, influence of incubation time and temperature; assay type: cell-based, murine; conditions: 2.5 × 10^5 cells/well, percent of total radioactivity added
Protocol: The in vitro cell binding was assessed by growing B16F1 cells in culture flasks to 80–90% confluence, trypsinizing, washing in PBS (pH 7.4), aliquoting into 12-well plates and allowing adherence to the wells overnight. Initially, we studied the influence of the incubation time and temperature on the binding to B16F1 melanoma cells. For this study, 12-well plates containing ~2.5 × 10^5 cells/well were incubated at 0, 22, and 37 °C with 4-[^18F]FEBZA in quadruplicate sets for 15, 30, 60, 120, and 180 min. After the incubation, the media were removed, and each well was washed with fresh ice-cold media (2 × 2 mL). The adherent cells were removed by lysing cells in 500 μL of PBS containing 10% Triton X-100 (Sigma-Aldrich, St. Louis, MO). The combined washes and lysate were analyzed for radioactivity content using a γ-counter.

B16F1 tumor = assay: microPET imaging in mice bearing B16F1 tumor; assay type: in vivo
Protocol: In vivo imaging of 4-[^18F]FEBZA in mice bearing B16F1 (n = 2) and HT-29 (n = 1) tumor was performed using a P4 microPET™ scanner (Concorde Microsystems, Inc., Knoxville, TN). After administering ~100 μCi of 4-[^18F]FEBZA via tail-vein injection, whole body PET scans were acquired in list mode. The images were reconstructed using filtered back projection with attenuation correction. Regions Of Interest (ROIs) were drawn on select organs using the summed image from the entire scan acquisition session, and the data were analyzed using ASIPro software (Siemens Preclinical Solutions, Knoxville, TN). The time activity curves (TACs) were generated from the list mode data reconstructed into multiple 5-min frames.

[2] = test system: C-32 amelanotic melanoma tumor xenografts; assay: biodistribution in mice bearing C-32 tumor xenografts; assay type: in vivo, athymic nu/nu mice; conditions: for Adrenals %IA/g tissue (mean ± SD) / Blood %IA/g tissue (mean ± SD) / Bone %IA/g tissue (mean ± SD) / Brain %IA/g tissue (mean ± SD) / Heart %IA/g tissue (mean ± SD) / Kidneys %IA/g tissue (mean ± SD) / Liver %IA/g tissue (mean ± SD) / Lung %IA/g tissue (mean ± SD) / Muscles %IA/g tissue (mean ± SD) / Pancreas %IA/g tissue (mean ± SD) / Sm. Intestine %IA/g tissue (mean ± SD) / Spleen %IA/g tissue (mean ± SD): C-32 tumor mice; for Tumor %IA/g tissue (mean ± SD): C-32 tumor
Protocol: as §1, §2

CCN(CC)CCNC(=O)c1ccc(OCC[18F])cc1 [4-[^18F]FEBZA, N-(2-diethylaminoethyl) 4-[^18F]fluoroethoxybenzamide]
tumor-to-brain tissue ratio ([1]; 1 h): 2.19 ± 0.04 | tumor-to-brain tissue ratio ([1]; 2 h): 2.04 ± 0.19 | tumor-to-muscle ratio ([1]; HT-29 mice group, 2 h): 2.21 ± 0.17 | Adrenals %IA/g tissue (mean ± SD) ([1]; 1 h post-injection): 1.07 ± 0.08 %IA/g tissue | Blood %IA/g tissue (mean ± SD) ([1]; 1 h post-injection): 2.80 ± 0.26 %IA/g tissue | Bone %IA/g tissue (mean ± SD) ([1]; 1 h post-injection): 3.83 ± 0.39 %IA/g tissue | Brain %IA/g tissue (mean ± SD) ([1]; 1 h post-injection): 1.68 ± 0.18 %IA/g tissue | Heart %IA/g tissue (mean ± SD) ([1]; 1 h post-injection): 2.52 ± 0.12 %IA/g tissue | Kidneys %IA/g tissue (mean ± SD) ([1]; 1 h post-injection): 2.91 ± 0.24 %IA/g tissue | Liver %IA/g tissue (mean ± SD) ([1]; 1 h post-injection): 4.84 ± 0.95 %IA/g tissue | Lung %IA/g tissue (mean ± SD) ([1]; 1 h post-injection): 2.19 ± 0.33 %IA/g tissue | Muscles %IA/g tissue (mean ± SD) ([1]; 1 h post-injection): 1.61 ± 0.28 %IA/g tissue | Pancreas %IA/g tissue (mean ± SD) ([1]; 1 h post-injection): 2.41 ± 0.26 %IA/g tissue | Sm. Intestine %IA/g tissue (mean ± SD) ([1]; 1 h post-injection): 1.98 ± 0.62 %IA/g tissue | Spleen %IA/g tissue (mean ± SD) ([1]; 1 h post-injection): 2.11 ± 0.25 %IA/g tissue | Adrenals %IA/g tissue (mean ± SD) ([1]; 2 h post-injection): 0.91 ± 0.19 %IA/g tissue | Blood %IA/g tissue (mean ± SD) ([1]; 2 h post-injection): 2.29 ± 0.23 %IA/g tissue | Bone %IA/g tissue (mean ± SD) ([1]; 2 h post-injection): 5.71 ± 1.11 %IA/g tissue | Brain %IA/g tissue (mean ± SD) ([1]; 2 h post-injection): 1.52 ± 0.28 %IA/g tissue | Heart %IA/g tissue (mean ± SD) ([1]; 2 h post-injection): 2.19 ± 0.37 %IA/g tissue | Kidneys %IA/g tissue (mean ± SD) ([1]; 2 h post-injection): 2.08 ± 0.29 %IA/g tissue | Liver %IA/g tissue (mean ± SD) ([1]; 2 h post-injection): 2.50 ± 0.29 %IA/g tissue | Lung %IA/g tissue (mean ± SD) ([1]; 2 h post-injection): 1.63 ± 0.16 %IA/g tissue | Muscles %IA/g tissue (mean ± SD) ([1]; 2 h post-injection): 1.40 ± 0.24 %IA/g tissue | Pancreas %IA/g tissue (mean ± SD) ([1]; 2 h post-injection): 1.56 ± 0.18 %IA/g tissue | Sm. Intestine %IA/g tissue (mean ± SD) ([1]; 2 h post-injection): 1.42 ± 0.10 %IA/g tissue | Spleen %IA/g tissue (mean ± SD) ([1]; 2 h post-injection): 1.51 ± 0.12 %IA/g tissue | Tumor %IA/g tissue (mean ± SD) ([1]; 1 h post-injection): 3.68 ± 0.47 %IA/g tissue | Tumor %IA/g tissue (mean ± SD) ([1]; 2 h post-injection): 3.07 ± 0.36 %IA/g tissue | total binding to B16F1 cells (B16F1 melanoma cells; 22 °C): 44.45 ± 0.61% | total binding to B16F1 cells (B16F1 melanoma cells; 37 °C, 1 h incubation): 60.03 ± 0.48% | time post-injection by which tumor is clearly visible on microPET images (B16F1 tumor; B16F1 melanoma tumor): ≤ 10 min | standardized uptake value (SUV) of tumor from microPET images (B16F1 tumor; B16F1 tumor): 1.53 ± 1.01 | radioactivity level in B16F1 tumor from microPET time activity curve (B16F1 tumor; by 47 min): over 3.5 %IA/g tumor | tumor-to-muscle ratio ([2]; C-32 mice group, 2 h): 2.43 ± 0.14 | Adrenals %IA/g tissue (mean ± SD) ([2]; 1 h post-injection): 1.26 ± 0.39 %IA/g tissue | Blood %IA/g tissue (mean ± SD) ([2]; 1 h post-injection): 3.22 ± 0.64 %IA/g tissue | Bone %IA/g tissue (mean ± SD) ([2]; 1 h post-injection): 3.47 ± 0.78 %IA/g tissue | Brain %IA/g tissue (mean ± SD) ([2]; 1 h post-injection): 1.87 ± 0.21 %IA/g tissue | Heart %IA/g tissue (mean ± SD) ([2]; 1 h post-injection): 2.52 ± 0.15 %IA/g tissue | Kidneys %IA/g tissue (mean ± SD) ([2]; 1 h post-injection): 2.85 ± 0.37 %IA/g tissue | Liver %IA/g tissue (mean ± SD) ([2]; 1 h post-injection): 3.11 ± 0.49 %IA/g tissue | Lung %IA/g tissue (mean ± SD) ([2]; 1 h post-injection): 1.94 ± 0.67 %IA/g tissue | Muscles %IA/g tissue (mean ± SD) ([2]; 1 h post-injection): 2.35 ± 1.06 %IA/g tissue | Pancreas %IA/g tissue (mean ± SD) ([2]; 1 h post-injection): 2.49 ± 0.42 %IA/g tissue | Sm. Intestine %IA/g tissue (mean ± SD) ([2]; 1 h post-injection): 2.23 ± 0.21 %IA/g tissue | Spleen %IA/g tissue (mean ± SD) ([2]; 1 h post-injection): 1.96 ± 0.38 %IA/g tissue | Adrenals %IA/g tissue (mean ± SD) ([2]; 2 h post-injection): 0.77 ± 0.18 %IA/g tissue | Blood %IA/g tissue (mean ± SD) ([2]; 2 h post-injection): 2.40 ± 0.30 %IA/g tissue | Bone %IA/g tissue (mean ± SD) ([2]; 2 h post-injection): 5.09 ± 0.72 %IA/g tissue | Brain %IA/g tissue (mean ± SD) ([2]; 2 h post-injection): 1.36 ± 0.17 %IA/g tissue | Heart %IA/g tissue (mean ± SD) ([2]; 2 h post-injection): 1.75 ± 0.35 %IA/g tissue | Kidneys %IA/g tissue (mean ± SD) ([2]; 2 h post-injection): 1.84 ± 0.12 %IA/g tissue | Liver %IA/g tissue (mean ± SD) ([2]; 2 h post-injection): 1.99 ± 0.12 %IA/g tissue | Lung %IA/g tissue (mean ± SD) ([2]; 2 h post-injection): 1.33 ± 0.35 %IA/g tissue | Muscles %IA/g tissue (mean ± SD) ([2]; 2 h post-injection): 1.05 ± 0.14 %IA/g tissue | Pancreas %IA/g tissue (mean ± SD) ([2]; 2 h post-injection): 1.40 ± 0.10 %IA/g tissue | Sm. Intestine %IA/g tissue (mean ± SD) ([2]; 2 h post-injection): 1.33 ± 0.06 %IA/g tissue | Spleen %IA/g tissue (mean ± SD) ([2]; 2 h post-injection): 1.22 ± 0.08 %IA/g tissue | Tumor %IA/g tissue (mean ± SD) ([2]; 1 h post-injection): 3.91 ± 0.23 %IA/g tissue | Tumor %IA/g tissue (mean ± SD) ([2]; 2 h post-injection): 2.53 ± 0.19 %IA/g tissue

— PMC5548701, “Selective targeting of melanoma using N-(2-diethylaminoethyl) 4-[^18F]fluoroethoxy benzamide (4-[^18F]FEBZA): a novel PET imaging probe” (EJNMMI Research, 2017)
